Experimental data reported in ChEMBL document CHEMBL3714748, “Compounds and compositions as ITPKB inhibitors” (2012).

Columns and labels:
[1] = target: T1, Kinase (Mus musculus, UniProt B2RXC2); experiment: Inhibition of mouse ITPKb (640 to 942 residues) expressed in Escherichia coli HK100 assessed as reduction in IP3 phosphorylation incubated for 60 mins by kinase-Glo ATP depletion assay
T1 sequence (B2RXC2 whole entry): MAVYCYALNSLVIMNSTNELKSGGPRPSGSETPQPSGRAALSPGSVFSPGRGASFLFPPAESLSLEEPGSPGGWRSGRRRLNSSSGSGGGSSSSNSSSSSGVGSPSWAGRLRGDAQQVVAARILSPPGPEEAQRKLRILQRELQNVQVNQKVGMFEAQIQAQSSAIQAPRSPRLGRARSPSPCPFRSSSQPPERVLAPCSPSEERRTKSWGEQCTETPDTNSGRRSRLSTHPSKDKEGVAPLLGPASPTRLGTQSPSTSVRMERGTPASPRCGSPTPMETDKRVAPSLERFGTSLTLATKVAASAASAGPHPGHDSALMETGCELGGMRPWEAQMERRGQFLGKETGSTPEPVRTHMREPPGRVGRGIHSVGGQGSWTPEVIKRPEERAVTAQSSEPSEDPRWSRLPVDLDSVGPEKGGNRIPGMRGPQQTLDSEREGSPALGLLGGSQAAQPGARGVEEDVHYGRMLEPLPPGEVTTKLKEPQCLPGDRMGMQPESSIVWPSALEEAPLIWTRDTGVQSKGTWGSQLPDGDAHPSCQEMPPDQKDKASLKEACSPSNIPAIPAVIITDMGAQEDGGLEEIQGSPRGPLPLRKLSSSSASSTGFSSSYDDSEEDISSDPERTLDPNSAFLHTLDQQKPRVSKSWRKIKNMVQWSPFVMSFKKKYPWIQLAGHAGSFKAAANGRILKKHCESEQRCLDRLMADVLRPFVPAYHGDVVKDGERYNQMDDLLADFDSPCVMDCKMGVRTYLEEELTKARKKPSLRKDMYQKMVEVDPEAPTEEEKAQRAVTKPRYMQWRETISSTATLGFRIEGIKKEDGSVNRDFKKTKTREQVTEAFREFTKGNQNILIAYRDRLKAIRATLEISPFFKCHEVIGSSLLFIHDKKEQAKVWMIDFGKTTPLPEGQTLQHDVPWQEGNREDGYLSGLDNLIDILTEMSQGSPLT

[2] = target: T2, Inositol-trisphosphate 3-kinase B (Homo sapiens, UniProt P27987); experiment: Inhibition of ITPKb in human Jurkat cells assessed as reduction in conversion of IP3 to IP4 using [3H]-myo-inositol incubated for 5 mins by beta-RAM radio-HPLC method; format: cell-based
T2 sequence (P27987 whole entry): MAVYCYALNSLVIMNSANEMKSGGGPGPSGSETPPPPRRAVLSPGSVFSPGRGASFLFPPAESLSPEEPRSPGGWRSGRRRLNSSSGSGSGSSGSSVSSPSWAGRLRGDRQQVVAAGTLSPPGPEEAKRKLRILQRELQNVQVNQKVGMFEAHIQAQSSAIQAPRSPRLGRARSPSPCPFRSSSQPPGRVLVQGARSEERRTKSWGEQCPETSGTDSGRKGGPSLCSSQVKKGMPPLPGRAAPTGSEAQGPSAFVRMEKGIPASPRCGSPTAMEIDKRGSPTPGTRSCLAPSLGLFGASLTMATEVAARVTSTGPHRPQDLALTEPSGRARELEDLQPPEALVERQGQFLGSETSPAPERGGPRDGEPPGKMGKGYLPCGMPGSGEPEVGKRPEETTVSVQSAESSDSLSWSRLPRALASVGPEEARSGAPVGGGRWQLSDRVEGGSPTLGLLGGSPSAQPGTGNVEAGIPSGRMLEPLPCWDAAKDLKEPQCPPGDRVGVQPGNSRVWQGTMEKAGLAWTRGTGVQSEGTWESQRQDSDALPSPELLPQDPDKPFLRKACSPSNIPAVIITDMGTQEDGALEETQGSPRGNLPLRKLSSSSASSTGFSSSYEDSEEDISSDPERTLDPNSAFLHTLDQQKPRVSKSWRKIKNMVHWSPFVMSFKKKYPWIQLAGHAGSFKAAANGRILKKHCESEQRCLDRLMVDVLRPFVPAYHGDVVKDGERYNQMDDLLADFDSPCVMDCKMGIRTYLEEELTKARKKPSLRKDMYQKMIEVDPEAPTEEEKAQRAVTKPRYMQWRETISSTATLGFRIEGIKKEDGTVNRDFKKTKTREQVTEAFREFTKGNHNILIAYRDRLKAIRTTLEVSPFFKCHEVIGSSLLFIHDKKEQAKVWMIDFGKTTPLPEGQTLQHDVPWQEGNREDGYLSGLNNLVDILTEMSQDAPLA

IC50 [1] [nM]	IC50 [2] [nM]	Structure (SMILES)
< 100	< 500	C[C@@H]1CN(Cc2c[nH]nc2-c2ccc3[nH]c(=O)oc3c2)CCN1c1ccc(C(F)(F)F)cn1
< 100		O=C1NCc2cc(-c3n[nH]cc3CN3CCN(c4ccc(C(F)(F)F)cn4)CC3C(F)(F)F)ccc2O1 (stereo not drawn)
< 100	< 500	C[C@@H]1CN(Cc2c[nH]nc2-c2ccc3c(c2)CNC(=O)O3)CCN1Cc1ccccc1F
< 100	< 500	C[C@H]1CN(Cc2c[nH]nc2-c2ccc3[nH]c(=O)oc3c2)CCN1c1ccc(C(F)(F)F)cn1
< 100	< 500	C[C@@H]1CN(Cc2c[nH]nc2-c2ccc3c(c2)CNC(=O)O3)CCN1c1ccc(C#N)cn1
< 100	< 500	C[C@@H]1CN(Cc2c[nH]nc2-c2ccc3c(c2)C(=O)NC(=O)C3)CCN1c1ccc(C(F)(F)F)cn1
< 100	< 500	O=C1NCc2cc(-c3n[nH]cc3CN3CCN(c4ccc(C(F)(F)F)cn4)[C@H](C(F)(F)F)C3)ccc2O1
< 100	< 500	C[C@@H]1CN(Cc2n[nH]nc2-c2ccc3c(c2)CNC(=O)O3)CCN1c1ccc(C(F)(F)F)cn1
< 100	< 500	C[C@@H]1CN(Cc2c[nH]nc2-c2ccc3c(c2)CNC(=O)O3)CCN1c1cc(C#N)ccn1
< 100	< 500	C[C@@H]1CN(Cc2c[nH]nc2-c2ccc3c(c2)CNC(=O)O3)CCN1c1ccc(Cl)cc1
< 100	< 500	C[C@@H]1CN(Cc2c[nH]nc2-c2ccc3c(c2)CNC(=O)C3)CCN1c1ccc(C(F)(F)F)cn1
< 100	< 500	O=C1NCc2cc(-c3n[nH]cc3CN3CCN(c4ccc(C(F)(F)F)cn4)C4(CC4)C3)ccc2O1
< 100	< 500	C[C@@H]1CN(Cc2c[nH]nc2-c2ccc3c(c2)CNC(=O)O3)CCN1c1cccc(C(F)(F)F)c1
< 100	< 500	O=C1NCc2cc(-c3n[nH]cc3CN3CCN(c4ccc(C(F)(F)F)cn4)C(C(F)(F)F)C3)ccc2O1 (stereo not drawn)
< 100	< 500	O=C1Cc2ccc(-c3n[nH]cc3CN3CCCN(c4ccc(C(F)(F)F)cn4)CC3)cc2CN1
< 100	< 500	C[C@@H]1CN(Cc2c[nH]nc2-c2ccc3c(c2)CNC(=O)O3)CCN1c1ccc(C(F)(F)F)cc1
< 100	< 500	O=C1NCc2cc(-c3n[nH]cc3CN3CCN(c4ccc(C(F)(F)F)cn4)CC3)ccc2O1
< 100	< 500	O=C1NCc2cc(-c3n[nH]cc3CN3CCN(c4ccc(C(F)(F)F)cn4)C[C@H]3C(=O)O)ccc2O1
< 100	< 500	C[C@H]1CN(Cc2c[nH]nc2-c2ccc3oc(=O)[nH]c(=O)c3c2)CCN1c1ccc(C(F)(F)F)cn1
< 100	< 500	O=C1NCc2cc(-c3n[nH]cc3CN3CCN(c4ccc(C(F)(F)F)cn4)[C@H](CF)C3)ccc2O1
< 100	< 500	O=C1NCc2cc(-c3n[nH]cc3CN3CCCN(c4ccc(C(F)(F)F)cn4)CC3)ccc2O1
< 100	< 500	O=C1NCc2cc(-c3n[nH]cc3CN3CCCN(c4ccc(C(F)(F)F)cn4)CC3)ccc2N1
< 100	< 500	C[C@@H]1CN(Cc2c[nH]nc2-c2ccc3c(c2)CNC(=O)N3)CCN1c1ccc(C(F)(F)F)cn1
< 100	< 500	C[C@@H]1CN(Cc2c[nH]nc2-c2ccc3c(c2)CNC(=O)O3)CCN1c1nccc(C(F)(F)F)n1
< 100	< 500	C[C@@H]1CN(Cc2c[nH]nc2-c2ccc3c(c2)CNC(=O)O3)CCN1C1CCCCC1

Continued, compound first:

Structure (SMILES)	IC50 [1] [nM]	IC50 [2] [nM]
C[C@H]1CN(Cc2c[nH]nc2-c2ccc3c(c2)CNC(=O)O3)CCN1c1ccc(C(F)(F)F)cn1	< 100	< 500
O=c1[nH]c(=O)c2cc(-c3n[nH]cc3CN3C4CCC3CN(c3ccc(C(F)(F)F)cn3)C4)ccc2o1	< 100	< 500
O=C1NCc2cc(-c3n[nH]cc3CN3C4CCC3CN(c3ccc(C(F)(F)F)cn3)C4)ccc2O1	< 100	< 500
C[C@@H]1CN(Cc2c[nH]nc2-c2ccc3oc(=O)[nH]c(=O)c3c2)CCN1c1ccc(C(F)(F)F)cn1	< 100	< 500
O=C1NCc2cc(-c3n[nH]cc3CN3CCN(c4ccc(C(F)(F)F)cn4)C[C@H]3CF)ccc2O1	< 100	< 500
C[C@@H]1CN(Cc2c[nH]nc2-c2ccc3c(c2)CNC(=O)O3)CCN1c1ccc(C(F)(F)F)cn1	< 100	< 500
O=C1NCc2cc(-c3n[nH]cc3CN3C4CC3CN(c3ccc(C(F)(F)F)cn3)C4)ccc2O1	< 100	< 500
C[C@@H]1CN(Cc2c[nH]nc2-c2ccc3c(c2)C(C)(C)NC(=O)O3)CCN1c1ccc(C(F)(F)F)cn1	< 100	< 500
O=C1NCc2cc(-c3n[nH]cc3CN3CCN(c4ccc(C(F)(F)F)cn4)C[C@H]3CO)ccc2O1	< 100	< 500
O=c1[nH]c(=O)c2cc(-c3n[nH]cc3CN3CCN(c4ccc(C(F)(F)F)cn4)CC3)ccc2o1	< 100	< 500
O=C1NCc2cc(-c3n[nH]cc3CN3CCN(c4ccc(C(F)(F)F)cn4)[C@@H](C(F)(F)F)C3)ccc2O1	< 100	< 500
Cc1cccc(N2CCN(Cc3c[nH]nc3-c3ccc4oc(=O)[nH]c(=O)c4c3)CC2)c1C	< 100	< 500
C[C@@H]1CN(Cc2c[nH]nc2-c2ccc3c(c2)CNC(=O)O3)CCN1c1ccc(Cl)cn1	< 100	< 500
Cc1ccc(N2CCN(Cc3c[nH]nc3-c3ccc4c(c3)CNC(=O)O4)C[C@H]2C)nc1	< 100	< 500
Cc1cccc(N2CCN(Cc3c[nH]nc3-c3ccc4[nH]c(=O)oc4c3)CC2)c1C	< 100	< 500
C[C@@H]1CN(Cc2c[nH]nc2-c2ccc3oc(=O)[nH]c3c2)CCN1c1ccc(C(F)(F)F)cn1	< 100	< 500
O=C1NCc2cc(-c3n[nH]cc3CN3CCN(c4ccc(C(F)(F)F)cn4)[C@H](CO)C3)ccc2O1	< 100	< 500
